Consider two compounds from US20110293525A1, “TUMOR STEM CELLS” (BOARD OF TRUSTEES OF THE UNIVERSITY OF ILLINOIS, priority 2010, published 2011).

Data set [1] has as its system tumor cell lines. The data set can be described thus: MTT viability after 72 h exposure to 0-600 μM DETA-NONOate. The format is cell-based. The following applies: doses 0-600 μM. On the procedure: (§1) Viability of Long Term NO Adapted Cultures: Cells from each of the cell lines were seeded (100 μL) into 96-wellmicrotiter plates and grown for 24 h, to ˜70% confluency. The media was then removed, and the cells were treated with 100-μL media containing varying concentrations (0-600 μM) of DETA-NONOate. Following an additional 72-h incubation period, cell proliferation/viability was assessed using the 3-(4,5-dimethylthiazol-2-yl)-2,5-diphenyltetrazolium bromide (MTT) assay. Media was removed from each well, and 100 μL of 2 mg/mL of MTT (Sigma-Aldrich Corp., St. Louis, Mo. USA) in phosphate buffer saline (PBS) was added. Plates were then placed in an incubator (37° C.) for 5 h, during which time purple formazan crystals formed upon the reaction of the MTT with mitochondrial dehydrogenases of viable cells. Following the incubation period, the MTT solution was removed, and 100 μL of dimethyl sulfoxide (DMSO) was added. The absorbance of the resulting purple solution in each well was read (540 nm) using a SpectraMax® Plus 384 spectrophotometer (Molecular Devices, Inc., Sunnyvale, Calif., USA). Each experiment was independently conducted a minimum of three times, and a minimum of four replicate wells were tested for each cell line at each concentration. Data were normalized to the mean optical density of the untreated control cells. […]

For data set [2], the system named is five HNSCC cell lines, parent cells. Briefly: MTT viability/proliferation in media containing 600 μM DETA-NONOate. The format is cell-based, human. Here is the method:
as §1

The test system of data set [3] is parent A549 cells. Described as above. The format is cell-based, human. The conditions noted are these: 600 μM donor, 72 hour period. On the procedure:
as §1

Data set [4] relates to LP07 parent cells. Briefly: MTT viability/proliferation in media containing 300 μM DETA-NONOate. The format is cell-based, mouse. The following applies: LP07 cell line. Here is the method:
as §1

For data set [5] the following is noted: buffer, pH 7.4; cited from earlier work.
The subject of data set [6] is A549 parent and A549-HNO cells. Here is the method: (§2) Exposure to Radicals: Cells were exposed to varying concentrations of hydrogen peroxide to determine if the adapted cells were resistant to high free radical environments generated by oxygen-based free radicals. Parent and adapted cells were seeded (100 μL) into 96-well microtiter plates in the appropriate media (parent cells in media without NO donor, HNO cells in media supplemented with 600 μM DETA-NONOate) and incubated overnight, reaching approximately 70% confluency by the following day. Cells were treated with varying concentrations (0-1.78 mM) of hydrogen peroxide (30% w/w solution, Sigma H1009, Sigma-Aldrich Corp., St. Louis, Mo., USA) and incubated at 37° C. for an additional 24 h. MTT cell viability/proliferation assays were then performed, as described above. A minimum of four replicate wells were measured for each cell line at each concentration, and assays were repeated in triplicate. Data were normalized against the mean of the untreated control cells, and values lying outside of two standard deviations were removed. Data were plotted as the mean normalized absorbance±standard error.

Data set [7] has as its system BT-20 parent and HNO cells. Here is the method:
as §2

The subject of data set [8] is HNSCC parent and HNO cells. The conditions noted are these: 24 h exposure, HNSCC cell lines. Here is the method: as §2
For data set [9], the system named is Hs578t parent and HNO cells. Here is the method:
as §2

Data set [10] concerns MCF-7 parent and HNO cells. Here is the method: as §2
Data set [11] deals with SCC016 parent and HNO cells. On the procedure: as §2
In data set [12] the test system is SCC040 parent and HNO cells. On the procedure: as §2
The subject of data set [13] is SCC056 parent and HNO cells. On the procedure: as §2
In data set [14] the test system is SCC114 parent and HNO cells. Here is the method: as §2
Data set [15] relates to SCC116 parent and HNO cells. On the procedure: as §2
Data set [16] concerns T-47D parent and HNO cells. On the procedure: as §2
Data set [17] relates to four breast adenocarcinoma cell line pairs, parent and HNO cells. The conditions noted are these: 24 h exposure, T-47D, Hs578T, BT-20, MCF-7 pairs. On the procedure: as §2

Where only a bound is given, the exact number is not on record here.

On to “(Z)-1-[2-(2-aminoethyl)-N-(2-ammonioethyl) amino]diazen-1-ium-1,2-diolate [DETA-NONOate]”, for which the “minimum concentration studied that was completely lethal to the cells” value in data set [1] was 600 µM. Further, the “survival of parent cells in media containing the NO donor” value in [2] is reported as “completely killed”; in data set [4], “Analogous results”. In addition, in [3], the “survival of parent cells placed directly into HNO environment” value is recorded as “not able to survive”. Further, in data set [5], the half-life result was “approximately 24 h”.

`OO` [H2O2, hydrogen peroxide]: the “concentrations at which both parent and HNO cells were killed” value is at least 0.055 mM in [6] (24 h exposure, A549 and A549-HNO); at least 110 µM in data set [17]. Further, the “H2O2 Resistance: highest concentration of H2O2 that the HNO cell lines grow in which the parent cell lines do not survive” value amounted to 0.055 mM in [6] (A549); 0.0069 mM in [7]; 0.0069 mM in data set [9]; 0.014 mM in data set [10]; 0.028 mM in data set [11]; 0.028 mM in data set [12]. The “H2O2 Resistance: highest concentration of H2O2 that the HNO cell lines grow in which the parent cell lines do not survive” value in [13] is listed as 0.028 mM; in [14], 0.55 mM; in data set [15] it was 0.028 mM; in data set [16] it was 0.028 mM. Besides, the “concentrations that killed both parent and HNO cells” value in data set [8] is on record as “above 55 μM”.
